Source: US20030096237A1, “Determination of the ability of patients to respond to a tumor treatment” (priority 2000, published 2003)

Test system: melanoma cell lines
Assay: oligonucleotide array, expression of genes encoding tumor associated antigens
Type: cell-based, human
Conditions: six melanoma cell lines, 48 hours, 100 U/ml IFN-α
Method: The cell lines CNCM I-2544 (375), CNCM I-2545 (D10), CNCM I-2546 (15), CNCM I-2547 (51), CNCM I-2548 (59) and CNCM I-2549 (67) were cultured for 48 hours in the presence (+) or absence (−) of 100 U/ml IFN-α. The expression patterns of genes encoding tyrosinase, tyrosinase related protein-2 , pmel-17 and mart-1, HLA restricted, tumor associated antigens are reported. Grey bars refer to IFN-α sensitive cell lines and black bars refer to IFN-α resistant lines (see Table 1). Data are presented as average difference of signal intensity between match and mismatch probesets.
Cultured melanoma cells were harvested by scraping and total cellular RNA was extracted. […]
The normalized average difference (nAD) between the signals of the perfect and of the mismatch probesets for each gene was used as the expression level of a given gene. […] Based on nAD, change factors related to IFN-α exposure were also calculated. […]
Total cellular RNA was extracted from the sensitive and resistant melanoma cell lines identified above, reverse transcribed and processed for hybridization to an oligonucleotide array (Hu6800FL, PN 900183) containing probe sets derived from 7000 full-length human genes. Expression levels for each gene were calculated as normalized average difference (nAD, see materials and methods). […]

For IFN-α, the “expression of the genes encoding TAA (MART-1/Melan-A, pmel-17, TRP-2, tyrosinase)” value was “does not appear to influence”.
